Measured values published in patent US9815796B2 (Merck Sharp & Dohme Corp., priority 2013, dated 2017).
Where two headings read alike, the source gives them in different places.

Molecular target: Rhesus PDE2A3 (Macaca mulatta, UniProt B3VTJ2)
Test: PDE2 fluorescence polarization (IMAP FP) inhibition assay, rhesus enzyme
Type: biochemical, rhesus macaque
Method in brief: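 IMAP FP (mP from parallel and perpendicular fluorescence against substrate-only control) was read ≥1 h after adding binding reagent. The preceding 60 min room-temperature reaction contained FAM-cAMP (50 nM) and cGMP (1 uM) in pH 7.2 Tris buffer with MgCl2 and DTT. Enzyme was supernatant of sonicated AD293 cells expressing rhesus PDE2A3; compounds were 3-fold titrated, DMSO 1% final.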

[1] = Rhesus PDE2, Lab A, read-out: Rhesus PDE2 Ki (nM) - Lab A
[2] = Rhesus PDE2, Lab B, read-out: Rhesus PDE2 Ki (nM) - Lab B

Chain of Rhesus PDE2A3 (B3VTJ2 1-941): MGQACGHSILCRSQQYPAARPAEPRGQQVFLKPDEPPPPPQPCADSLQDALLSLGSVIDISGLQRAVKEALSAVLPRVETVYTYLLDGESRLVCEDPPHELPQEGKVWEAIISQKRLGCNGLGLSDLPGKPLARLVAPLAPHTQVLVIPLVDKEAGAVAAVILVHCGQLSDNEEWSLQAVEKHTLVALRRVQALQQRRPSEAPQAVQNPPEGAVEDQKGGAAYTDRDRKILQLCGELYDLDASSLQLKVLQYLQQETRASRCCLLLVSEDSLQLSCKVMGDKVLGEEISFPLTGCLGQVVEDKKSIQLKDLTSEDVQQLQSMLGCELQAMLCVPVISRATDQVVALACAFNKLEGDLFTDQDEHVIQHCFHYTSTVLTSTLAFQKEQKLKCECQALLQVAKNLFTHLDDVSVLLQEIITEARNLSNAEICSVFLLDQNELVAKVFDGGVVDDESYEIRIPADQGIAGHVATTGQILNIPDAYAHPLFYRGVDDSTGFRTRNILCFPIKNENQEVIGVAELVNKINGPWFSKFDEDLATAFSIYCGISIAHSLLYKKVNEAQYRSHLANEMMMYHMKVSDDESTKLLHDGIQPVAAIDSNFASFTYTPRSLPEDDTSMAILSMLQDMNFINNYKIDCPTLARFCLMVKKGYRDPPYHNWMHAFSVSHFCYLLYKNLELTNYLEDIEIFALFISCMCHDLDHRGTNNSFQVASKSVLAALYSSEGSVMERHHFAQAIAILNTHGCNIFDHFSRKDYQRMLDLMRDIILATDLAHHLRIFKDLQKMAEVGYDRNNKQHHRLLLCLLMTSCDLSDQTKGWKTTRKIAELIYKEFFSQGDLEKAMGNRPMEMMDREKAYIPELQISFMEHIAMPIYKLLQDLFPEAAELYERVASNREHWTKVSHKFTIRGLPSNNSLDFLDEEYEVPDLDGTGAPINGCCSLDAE

Ki [1]	Ki [2]	Rhesus PDE2 % inh. at 1 uM - Lab A (Rhesus PDE2, Lab A, at 1 uM)	SMILES
~601 nM	682 nM		CC(NC(=O)c1cc(=O)[nH]c(-c2ccccc2)n1)c1ccc(F)cc1 (centres unmarked) [Example 343, N-[1-(4-fluorophenyl)ethyl]-6-oxo-2-phenyl-1,6-dihydropyrimidine-4-carboxamide]
~449 nM	681 nM		CC(C)(NC(=O)c1cc(=O)[nH]c(-c2ccccc2)n1)c1ccc(F)c(F)c1 [Example 344, N-[1-(3,4-difluorophenyl)-1-methylethyl]-6-oxo-2-phenyl-1,6-dihydropyrimidine-4-carboxamide]
8340 nM			CN(Cc1ccc(C(F)(F)F)cc1)C(=O)c1cc(=O)[nH]c(-c2ccccc2)n1 [Example 345, N-methyl-6-oxo-2-phenyl-N-[4-(trifluoromethyl)benzyl]-1,6-dihydropyrimidine-4-carboxamide]
2350 nM			O=C(c1cc(=O)[nH]c(-c2ccccc2)n1)N1CCCCC1c1ccc(C(F)(F)F)cc1 (centres unmarked) [Example 346, 2-phenyl-6-({2-[4-(trifluoromethyl)phenyl]piperidin-1-yl}carbonyl)pyrimidin-4(3H)-one]
~877 nM	1500 nM		CC(C)c1ccc(CCNC(=O)c2cc(=O)[nH]c(-c3ccccc3)n2)cc1 [Example 348, N-{2-[4-(1-methylethyl)phenyl]ethyl}-6-oxo-2-phenyl-1,6-dihydropyrimidine-4-carboxamide]
~525 nM	713 nM		CC(C)(NC(=O)c1cc(=O)[nH]c(-c2ccccc2)n1)c1ccc(F)cc1 [Example 349, N-[1-(4-fluorophenyl)-1-methylethyl]-6-oxo-2-phenyl-1,6-dihydropyrimidine-4-carboxamide]
> 1000 nM	2800 nM	42 % inh.	C[C@@H](NC(=O)c1cc(=O)[nH]c(-c2ccccc2)n1)c1cccc2ccccc12 [Example 354, N-[(1R)-1-naphthalen-1-ylethyl]-6-oxo-2-phenyl-1,6-dihydropyrimidine-4-carboxamide]
	~29200 nM		CCOC(=O)c1ccc([C@@H](C)NC(=O)c2cc(=O)[nH]c(-c3ccccc3)n2)cc1 [Example 355, ethyl 4-[(1R)-1-{[(6-oxo-2-phenyl-1,6-dihydropyrimidin-4-yl)carbonyl]amino}ethyl]benzoate]
345 nM	490 nM		CC(NC(=O)c1cc(=O)[nH]c(-c2ccccc2)n1)c1ccc(C(F)(F)F)nc1 (centres unmarked) [Example 356, 6-oxo-2-phenyl-N-{1-[6-(trifluoromethyl)pyridin-3-yl]ethyl}-1,6-dihydropyrimidine-4-carboxamide]
	~11300 nM		COc1ccc([C@H](C)NC(=O)c2cc(=O)[nH]c(-c3ccccc3)n2)cc1 [Example 357, N-[(1S)-1-(4-methoxyphenyl)ethyl]-6-oxo-2-phenyl-1,6-dihydropyrimidine-4-carboxamide]
11600 nM			CC(NC(=O)c1cc(=O)[nH]c(-c2ccccc2)n1)c1ccncc1 (centres unmarked) [Example 358, 6-oxo-2-phenyl-N-(1-pyridin-4-ylethyl)-1,6-dihydropyrimidine-4-carboxamide]
	~24700 nM		C[C@H](NC(=O)c1cc(=O)[nH]c(-c2ccccc2)n1)c1cccc2ccccc12 [Example 362, N-[(1S)-1-naphthalen-1-ylethyl]-6-oxo-2-phenyl-1,6-dihydropyrimidine-4-carboxamide]
	3950 nM		Cc1ccc([C@H](C)NC(=O)c2cc(=O)[nH]c(-c3ccccc3)n2)cc1 [Example 364, N-[(1S)-1-(4-methylphenyl)ethyl]-6-oxo-2-phenyl-1,6-dihydropyrimidine-4-carboxamide]
6850 nM			C[C@@H](NC(=O)c1cc(=O)[nH]c(-c2ccccc2)n1)c1ccc(CN(C)C)cc1 [Example 365, N-[(1R)-1-{4-[(dimethylamino)methyl]phenyl}ethyl]-6-oxo-2-phenyl-1,6-dihydropyrimidine-4-carboxamide]
~880 nM	1100 nM		CC(NC(=O)c1cc(=O)[nH]c(-c2ccccc2)n1)c1cccc(Cl)c1 (centres unmarked) [Example 368, N-[1-(3-chlorophenyl)ethyl]-6-oxo-2-phenyl-1,6-dihydropyrimidine-4-carboxamide]
	8780 nM		CC(NC(=O)c1cc(=O)[nH]c(-c2ccccc2)n1)c1ccc(O)cc1 (centres unmarked) [Example 369, N-[1-(4-hydroxyphenyl)ethyl]-6-oxo-2-phenyl-1,6-dihydropyrimidine-4-carboxamide]

The next lines start with the compound.

SMILES	Ki [1]	Ki [2]	Rhesus PDE2 % inh. at 1 uM - Lab A (Rhesus PDE2, Lab A, at 1 uM)
Cc1cc(C(F)(F)F)ccc1CNC(=O)c1cc(=O)[nH]c(C2CC2)n1 [Example 228, 2-cyclopropyl-N-[2-methyl-4-(trifluoromethyl)benzyl]-6-oxo-1,6-dihydropyrimidine-4-carboxamide]	1430 nM		
O=C(NCc1ccc(C(F)(F)F)cc1Cl)c1cc(=O)[nH]c(C2CC2)n1 [Example 229, N-[2-chloro-4-(trifluoromethyl)benzyl]-2-cyclopropyl-6-oxo-1,6-dihydropyrimidine-4-carboxamide]	864 nM		
C[C@@H](NC(=O)c1cc(=O)[nH]c(C2CC2)n1)c1ccc(C(F)(F)F)c2ccccc12 [Example 235, 2-cyclopropyl-6-oxo-N-{(1R)-1-[4-(trifluoromethyl)naphthalen-1-yl]ethyl}-1,6-dihydropyrimidine-4-carboxamide]	274 nM		
CC(NC(=O)c1cc(=O)[nH]c(C2CC2)n1)c1ccc(C(F)(F)F)cn1 (centres unmarked) [Example 238, 2-cyclopropyl-6-oxo-N-{1-[5-(trifluoromethyl)pyridin-2-yl]ethyl}-1,6-dihydropyrimidine-4-carboxamide]	683 nM		
O=C(NCc1c(Cl)cc(C(F)(F)F)cc1Cl)c1cc(=O)[nH]c(C2CC2)n1 [Example 239, 2-cyclopropyl-N-[2,6-dichloro-4-(trifluoromethyl)benzyl]-6-oxo-1,6-dihydropyrimidine-4-carboxamide]	3070 nM		
CC(C)(NC(=O)c1cc(=O)[nH]c(-c2ncccn2)n1)c1ccc(SC(F)(F)F)c(F)c1 [Example 241, N-(1-{3-fluoro-4-[(trifluoromethyl)sulfanyl]phenyl}-1-methylethyl)-6-oxo-1,6-dihydro-2,2′-bipyrimidine-4-carboxamide]	557 nM		
Cc1nc(C(=O)NC(C)c2cccc(-c3ccc(F)cc3)c2)cc(=O)[nH]1 (centres unmarked) [Example 267, N-[1-(4′-fluorobiphenyl-3-yl)ethyl]-2-methyl-6-oxo-1,6-dihydropyrimidine-4-carboxamide]	8060 nM		
Cc1nc(C(=O)N[C@H](C)c2cccc(C(F)(F)F)c2)cc(=O)[nH]1 [Example 271, 2-methyl-6-oxo-N-{(1R)-1-[3-(trifluoromethyl)phenyl]ethyl}-1,6-dihydropyrimidine-4-carboxamide]	2960 nM		
CC(C)(NC(=O)c1cc(=O)[nH]c(-c2ncccn2)n1)c1ccc(OC(F)(F)F)cc1 [Example 289, N-{1-methyl-1-[4-(trifluoromethoxy)phenyl]ethyl}-6-oxo-1,6-dihydro-2,2′-bipyrimidine-4-carboxamide]	2320 nM		
Cc1nc(C(=O)N[C@@H](C)c2cccc3ccccc23)cc(=O)[nH]1 [Example 302, 2-methyl-N-[(3S)-1-naphthalen-1-ylethyl]-6-oxo-1,6-dihydropyrimidine-4-carboxamide]	51400 nM		
Cc1nc(C(=O)N[C@H](c2ccc(C(F)(F)F)cc2)C(C)C)cc(=O)[nH]1 [Example 315, 2-methyl-N-{(1S)-2-methyl-1-[4-(trifluoromethyl)phenyl]propyl}-6-oxo-1,6-dihydropyrimidine-4-carboxamide]	698 nM		
COc1cc(-c2ccc([C@@H](C)NC(=O)c3cc(=O)[nH]c(C)n3)cc2)ccn1 [Example 317, (R)—N-(1-(4-(2-methoxypyridin-4-yl)phenyl)ethyl)-2-methyl-6-oxo-1,6-dihydropyrimidine-4-carboxamide]	1810 nM		
Cc1nc(C(=O)N[C@H](C)c2ccc(-c3ccc(C(F)(F)F)cc3)cc2)cc(=O)[nH]1 [Example 318, 2-methyl-6-oxo-N-{(1R)-1-[4′-(trifluoromethyl)biphenyl-4-yl]ethyl}-1,6-dihydropyrimidine-4-carboxamide]	73 nM	189 nM	
Cc1cc(-c2ccc([C@@H](C)NC(=O)c3cc(=O)[nH]c(C)n3)cc2)ccn1 [Example 319, 2-methyl-N-{(1R)-1-[4-(2-methylpyridin-4-yl)phenyl]ethyl}-6-oxo-1,6-dihydropyrimidine-4-carboxamide]	1490 nM		
Cc1nc(C(=O)N[C@H](C)c2ccc(-c3cccnc3)cc2)cc(=O)[nH]1 [Example 320, 2-methyl-6-oxo-N-[(1R)-1-(4-pyridin-3-ylphenyl)ethyl]-1,6-dihydropyrimidine-4-carboxamide]	1700 nM		
Cc1nc(C(=O)N[C@H](C)c2ccc(-c3ccc(C(F)(F)F)nc3)cc2)cc(=O)[nH]1 [Example 321, 2-methyl-6-oxo-N-[(1R)-1-{4-[6-(trifluoromethyl)pyridin-3-yl]phenyl}ethyl]-1,6-dihydropyrimidine-4-carboxamide]	911 nM		
Cc1nc(C(=O)N[C@H](C)c2ccc([S+]([O-])C(F)(F)F)cc2)cc(=O)[nH]1 (some centres unmarked) [Example 330]	809 nM		
Cc1nc(C(=O)N[C@H](C)c2ccc(S(=O)(=O)C(F)(F)F)cc2)cc(=O)[nH]1 [Example 331, 2-Methyl-6-oxo-N-[(1R)-1-{4-[(trifluoromethyl)sulfonyl]phenyl}ethyl]-1,6-dihydropyrimidine-4-carboxamide]	304 nM		
C[C@@H](NC(=O)c1cc(=O)[nH]c(-c2ccccc2)n1)c1ccc(O)cc1 [Example 339, N-[(1R)-1-(4-hydroxyphenyl)ethyl]-6-oxo-2-phenyl-1,6-dihydropyrimidine-4-carboxamide]	~417 nM	653 nM	
C[C@@H](NC(=O)c1cc(=O)[nH]c(-c2ccccc2)n1)c1ccccc1 [Example 342, 6-oxo-2-phenyl-N-[(1R)-1-phenylethyl]-1,6-dihydropyrimidine-4-carboxamide]	~605 nM	963 nM	
